Measurements taken from US9321742B2, “N1-cyclic amine-N5-substituted biguanide derivatives, methods of preparing the same and pharmaceutical composition comprising the same” (IMMUNOMET THERAPEUTICS INC., priority 2011, dated 2016).
Counter-ions that a name gives are not always drawn.

Key:
[1] = tested on: HCT116 cells; assay: Measurement of effect of inhibiting cancer cell proliferation (MTT); type: cell-based; conditions: Homo sapiens; for inhibition at 100 µM: HCT-116, 100 uM, read-out: Cell Growth Inhibition (%) at 100 uM; for GI50: HCT-116, 48 hours
Description: HCT116 cells derived from human colorectal cancer (commercially available from the Korean Cell Line Bank) were used, and the effect of inhibiting cancer cell proliferation of the biguanide derivative was confirmed by measuring the concentration value (cell growth inhibition concentration, GIC50) at which cell growth was inhibited by 50% using a 3-(4,5-dimethylthiazol-2-yl)-2,5-[…] bromide (MTT) reagent.
First, HCT116 cells were put on a 96-well plate and cultured in a DMEM medium containing 10% fetal bovine serum for 16 hours so that the cellcount in each well was approximately 5,000. Subsequently, to obtain the GIC50 value of each compound, culture media were treated with 100 μM, 25 μM, 6.25 μM, 1.56 μM or 0.39 μM of the compound, and then cultured for 48 hours. At this time, some of the compounds were treated with 200 μM instead of 100 μM. Metformin hydrochloride was used as the control, and the culture media were treated with 25, 12.5, 2.5, 0.5, 0.1 mM metformin hydrochloride, and then tested in the same manner as described in the derivatives synthesized in the examples. In order to determine whether the cells survived after treatment with the compound, MTT was added to the culture media which were then cultured for another 3 hours. Formed formazane crystals were dissolved using dimethyl sulfoxide (DMSO), and the absorbance of the resulting solution was measured at 560 nm. After the 48-hours culture, the ratio of the cell count cultured on a well plate not treated with the compound to the living cell count on a well plate treated with the compounds synthesized in the examples was indicated as cell viability (%) according to each treated concentration. A cell viability curve graph was plotted and the concentration (GIC50) value of the compound at which the growth was inhibited by 50% was calculated to confirm the effect of inhibition of cancer cell proliferation. Also, the cell growth viability (%) when the concentration of the treated biguanide derivative and the metformin hydrochloride as the control were 100 uM was shown.

[2] = tested on: AMPKα; assay: Measurement of AMPK-activation effect (AMPKα Thr172 phosphorylation immunoassay in MCF7 cells); type: cell-based, human; conditions: 24 hours; for AMPK activation effect 10 uM (%) / AMPK activation effect 50 uM (%): relative to untreated cells
Method: MCF7 cells derived from human breast cancer cells (commercially available from the Korean Cell Line Bank) were used, and the AMPK (5′-AMP-activated protein kinase alpha)-activation effect of the biguanide derivative was confirmed using an AMPKα immunoassay kit (Invitrogen, Catalog No. KH00651).
MCF7 cells were cultured in a DMEM medium supplemented with 10% fetal bovine serum. Thereafter, the cultured MCF7 cells were put into a 6-well plate with approximately 5×10^5 cells per well and cultured in an incubator supplied with 5% CO2. Culture media were treated with the derivatives synthesized in the examples at contents of 5, 10 and 50 μM, and then cultured for 24 hours. Metformin hydrochloride was used as the control, and the culture media were treated with 0.05, 0.5, 1, 2, 5 and 10 mM metformin hydrochloride, and then tested in the same manner as described in the derivatives synthesized in the examples. Subsequently, the cells were lysed according to a method presented in the operation manual of the AMPKα immunoassay kit, and 20 μg of a cell lysate was then yielded through protein assay. Thereafter, the AMPK activation effect was obtained by determining the degree of phosphorylation of 172nd threonine residue (Thr172) of the AMPKα from the cell lysate according to the method presented in the operation manual of the AMPKα immunoassay kit. […] A curve graph showing AMPK activation according to the concentration of the treated compounds was plotted based on the obtained AMPKα activation results, the concentration (activation concentration 150, AC150) value of the compound whose AMPK activation reached 150% was calculated using a GraphPad Prism 5.0 program, and the degrees of AMPK activation were obtained when concentrations of the treated biguanide derivatives were 10 μM and 50 μM and the metformin hydrochloride was 50 μM.

SMILES | inhibition at 100 µM ([1]; 48 hours) [%] | GI50 [1] [µM] | AMPK activation effect 10 uM (%) [2] [%] | AMPK activation effect 50 uM (%) [2] [%] | AC150 (concentration at which AMPK activation reached 150%) [2] [µM] | melting point [°C] | inhibition at 200 µM ([1]; HCT-116, 200 uM, 48 hours, read-out: Cell Growth Inhibition (%) at 200 uM) [%]
Cl.N=C(NCc1ccc(C(F)(F)F)cc1)NC(=N)N1CCCC1 [Example 38, N1-pyrrolidine-N5-(4-trifluoromethyl)benzyl biguanide hydrochloride] | 61.6 | 32.4 | 116 | 213 | 1.4 | 268 to 270 | –
Cl.N=C(NCCc1ccccc1)NC(=N)N1CCCCC1 [Example 58, N1-piperidine-N5-(phenethyl)biguanide hydrochloride] | 32.3 | 43.2 | 167 | 388 | 6.4 | 235 to 237 | –
Cl.N=C(NCCc1ccccc1)NC(=N)N1CCCC1 [Example 57, N1-pyrrolidine-N5-(phenethyl)biguanide hydrochloride] | – | > 200 | – | 391 | 8.1 | 213 to 215 | 23.2
Cl.N=C(NCc1cccs1)NC(=N)N1CCCCC1 [Example 24, N1-piperidine-N5-(thiophene-2-ylmethyl)biguanide hydrochloride] | 51.7 | 93.2 | 64 | 112 | >50 | 220 to 221 | –
Cl.N=C(NCc1cccc(F)c1)NC(=N)N1CCCCC1 [Example 29, N1-piperidine-N5-(3-fluoro)bezyl biguanide hydrochloride] | – | – | – | 131 | >50 | 171 to 172 | –
Cl.N=C(NCc1ccc(Cl)cc1Cl)NC(=N)N1CCCCC1 [Example 53, N1-piperidine-N5-(2,4-dichloro)benzyl biguanide hydrochloride] | 63.7 | 9.1 | 238 | 831 | 3.5 | 240 to 241 | –
Cl.N=C(NCc1ccc(OC(F)(F)F)c(F)c1)NC(=N)N1CCCCC1 [Example 49, N1-piperidine-N5-(3-fluoro-4-trifluoromethoxy)benzyl biguanide hydrochloride] | 97 | 9.2 | 158 | 147 | 0.8 | 266 to 268 | –
Cl.N=C(NCc1ccc(F)c(OC(F)(F)F)c1)NC(=N)N1CCCCC1 [Example 48, N1-piperidine-N5-(4-fluoro-3-trifluoromethoxy)benzyl biguanide hydrochloride] | 96.4 | 13.4 | 244 | – | 18.2 | 233 to 235 | –
Cl.N=C(NCc1ccc(OC(F)(F)F)cc1)NC(=N)N1CCCC1 [Example 41, N1-pyrrolidine-N5-(4-trifluoromethoxy)benzyl biguanide hydrochloride] | 97.4 | 25.6 | 242 | 698 | 0.9 | 242 to 243 | –
Cl.N=C(NCc1ccc(C(F)(F)F)cc1)NC(=N)N1CCC1 [Example 37, N1-azetidine-N5-(4-trifluoromethyl)benzyl biguanide hydrochloride] | 23.5 | 39.3 | 100 | 107 | 24.2 | 260 to 261 | –
Cl.N=C(NCc1cccc(C(F)(F)F)c1)NC(=N)N1CCOCC1 [Example 36, N1-morpholine-N5-(3-trifluoromethyl)benzyl biguanide hydrochloride] | 97.2 | > 100 | 516 | 656 | >50 | 211 to 212 | –
Cl.N=C(NC(=N)N1CCCC1)NC1CCCC1 [Example 13, N1-pyrrolidine-N5-cyclopentyl biguanide hydrochloride] | 41.9 | > 100 | 131 | 375 | 11.9 | 200 to 201 | –
Cl.N=C(NCc1cccnc1)NC(=N)N1CCCC1 [Example 20, N1-pyrrolidine-N5-(pyridine-3-ylmethyl)biguanide hydrochloride] | 9.2 | > 100 | 71 | 89 | >50 | 201 to 203 | –
Cl.N=C(NCc1ccc(F)c(C(F)(F)F)c1)NC(=N)N1CCCCC1 [Example 44, N1-piperidine-N5-(4-fluoro-3-trifluoromethyl)benzyl biguanide hydrochloride] | 32.6 | 15.2 | 180 | 383 | 10.3 | 232 to 235 | –
Cl.N=C(NC(=N)N1CCCC1)NC1CCCCCC1 [Example 17, N1-pyrrolidine-N5-cycloheptyl biguanide hydrochloride] | 60.8 | 41 | 149 | 612 | 7.9 | 265 to 266 | –
Cl.N=C(NCc1cccc2ccccc12)NC(=N)N1CCCCC1 [Example 25, N1-piperidine-N5-(naphthalene-1-yl)methyl biguanide hydrochloride] | 96.6 | 28 | – | 428 | 8.0 | – | –
Cl.N=C(NCc1cccnc1)NC(=N)N1CCCCC1 | – | – | – | – | – | 197 to 199 | –
Cl.N=C(NCc1ccc(C(F)(F)F)cc1)NC(=N)N1CCCCC1 [Example 39, N1-piperidine-N5-(4-trifluoromethyl)benzyl biguanide hydrochloride] | 78.9 | 16.2 | 476 | 615 | 0.9 | – | –
CN(C)C(=N)N=C(N)N [Metformin hydrochloride, reference compound] | 1.8 | 2850 | – | 130 | 188.3 | – | –
CN1CCN(C(=N)NC(=N)NCc2ccc(OC(F)(F)F)cc2)CC1.Cl [Example 43, N1-(4-methyl)piperazine-N5-(4-trifluoromethoxy)benzyl biguanide hydrochloride] | 97.7 | > 100 | 669 | 854 | 6.4 | – | –
Cl.N=C(NCc1ccccc1)NC(=N)N1CCCCC1 | – | – | – | – | – | 156 to 158 | –
